Results published in publication PMC9921564, “Novel Indole-Containing Hybrids Derived from Millepachine: Synthesis, Biological Evaluation and Antitumor Mechanism Study” (Molecules, 2023).

Tests used:
[1] = test system: A549 (human non-small-cell-lung cancer cell line); assay: CCK-8 antiproliferative assay, A549; type: cell-based; settings: 48 h, read-out: IC50, Mean ± SE, A549
[2] = test system: A2780/TAX (A2780 cell line resistant to taxol); assay: CCK-8 cytotoxicity, A2780/TAX; type: cell-based; settings: Homo sapiens, 48 h, CCK-8, taxol-resistant, read-out: IC50, Mean ± SE, A2780/TAX
Experimental: (§1) Besides the high cytotoxicity, drug resistance is the other limiting factor of chemotherapeutics. In this study, the cytotoxicities of compound 14b towards five kinds of drug-resistant cancer cell lines were also evaluated. Except three kinds of cell lines that are resistant to three drugs commonly used in clinical practice, two kinds of cell lines that are resistant to MTAs were also evaluated.
(§2) A549 (non-small-cell-lung cancer cell line), Caski (human epithelial cervical cancer cell line), HepG2 (human liver carcinoma cell line), MCF-7 (human breast carcinoma cell line), C42B (human prostate cancer line C42B), L-02 (human normal hepatocytes), RWPE-1 (human prostate epithelial cells) and MCF-10A (human normal mammary epithelial cells) were obtained from National Collection of Authenticated Cell Cultures (Shanghai, China). […]
(§3) After 24 h, the medium containing different concentrations of tested compounds were added for another 48 h. […] The optical density was recorded with a microplate reader at 570 nm (Thermo Scientific, Varioskan LUX). All the experiments were repeated independently at least three times and the IC50 values were calculated […]

[3] = test system: C42B (human prostate cancer line); assay: CCK-8 antiproliferative assay, C42B; type: cell-based; settings: 48 h, read-out: IC50, Mean ± SE, C42B
tubulin = target: T1, tubulin (Sus scrofa, UniProt P02554); assay: in vitro tubulin polymerization inhibition assay; type: biochemical
T1 construct: purchased cytoskeleton, Inc. BK011P
Experimental: Tubulin–microtubule homeostasis is crucial for cell mitosis.
Figure 2 Effect of compound 14b on tubulin. […] The experiments were performed at least three times, and representative images are shown. Scale bars are 10 μm. […] The backbone of tubulin is shown in ribbon representation (α-tubulin, yellow; β-tubulin, green). […] The data were shown as mean ± SE (standard error) of at least three independent experiments.
S Ⅳ. Biological evaluation methods
The cells grown in logarithmical phase were seeded in 96-well plates with the density of 5×10^3/well.
After 24 h, the medium containing different concentrations of tested compounds were added for another 48 h. Then, CCK-8 reagents were added to cells and continued to culture for 2 h. The optical density was recorded with a microplate reader at 570 nm (Thermo Scientific, Varioskan LUX). All the experiments were repeated independently at least three times and the IC50 values were calculated […]
S2. In vitro tubulin polymerization inhibition assay
The in vitro tubulin polymerization inhibition assay was conducted according to the manufacturer ’s instruction (cytoskeleton, cat. no. BK011P). Briefly, 5 μL of the tested compounds at the indicated

[4] = test system: HCT-8/VCR (HCT-8 cell line resistant to vincristine); assay: CCK-8 cytotoxicity, HCT-8/VCR; type: cell-based; settings: Homo sapiens, 48 h, CCK-8, vincristine-resistant, read-out: IC50, Mean ± SE, HCT-8/VCR
Experimental: as §1, §2, §3

[5] = test system: HepG2 (human liver carcinoma cell line); assay: CCK-8 antiproliferative assay, HepG2; type: cell-based; settings: 48 h, read-out: IC50, Mean ± SE, HepG2
[6] = test system: MCF-10A (normal human mammary epithelial cells); assay: CCK-8 cytotoxicity, MCF-10A normal cells; type: cell-based
Description: A549 (non-small-cell-lung cancer cell line), Caski (human epithelial cervical cancer cell line), HepG2 (human liver carcinoma cell line), MCF-7 (human breast carcinoma cell line), C42B (human prostate cancer line C42B), L-02 (human normal hepatocytes), RWPE-1 (human prostate epithelial cells) and MCF-10A (human normal mammary epithelial cells) were obtained from National Collection of Authenticated Cell Cultures (Shanghai, China). A549/CDDP (A549 cell line resistant to cisplatin), C42B/ENZR (C42b cell line resistant to Enzalutamide), MCF-7/DOX (MCF-7 cell line resistant to doxorubicin), A2780/TAX (human ovarian cancer cell line A2780 resistant to taxol) and HCT-8/VCR (human ileocecum carcinoma cell lines HCT-8 resistant to vincristine) were kindly provided by Professor Junjian Wang and Professor Xingshu Li at Sun Yat-Sen University, China. […]
as §3

T1 sequence (P02554 whole entry): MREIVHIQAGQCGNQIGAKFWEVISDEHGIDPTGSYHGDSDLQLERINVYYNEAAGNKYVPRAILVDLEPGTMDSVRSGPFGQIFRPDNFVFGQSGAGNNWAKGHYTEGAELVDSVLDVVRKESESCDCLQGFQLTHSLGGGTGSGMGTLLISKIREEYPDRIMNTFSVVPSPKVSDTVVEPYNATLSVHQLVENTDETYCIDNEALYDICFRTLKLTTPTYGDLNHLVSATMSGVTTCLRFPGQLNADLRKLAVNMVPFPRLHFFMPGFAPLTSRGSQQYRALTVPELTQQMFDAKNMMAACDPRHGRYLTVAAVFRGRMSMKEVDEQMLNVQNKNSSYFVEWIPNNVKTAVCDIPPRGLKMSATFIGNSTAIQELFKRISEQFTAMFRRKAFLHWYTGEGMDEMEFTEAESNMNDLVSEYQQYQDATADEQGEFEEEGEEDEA
T1 sequence (P02550 whole entry partner): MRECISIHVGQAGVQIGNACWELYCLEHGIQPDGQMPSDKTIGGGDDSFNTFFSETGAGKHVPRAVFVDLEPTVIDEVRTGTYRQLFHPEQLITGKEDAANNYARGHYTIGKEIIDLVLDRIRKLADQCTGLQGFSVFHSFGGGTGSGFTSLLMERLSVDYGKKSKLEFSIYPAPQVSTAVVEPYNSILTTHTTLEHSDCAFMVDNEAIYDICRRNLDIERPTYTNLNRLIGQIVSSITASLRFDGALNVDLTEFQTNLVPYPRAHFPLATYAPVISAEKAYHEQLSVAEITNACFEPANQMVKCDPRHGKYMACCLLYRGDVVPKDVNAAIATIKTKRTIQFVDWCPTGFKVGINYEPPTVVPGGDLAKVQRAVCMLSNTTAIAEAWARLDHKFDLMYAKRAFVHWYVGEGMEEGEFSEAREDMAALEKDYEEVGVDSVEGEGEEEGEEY

Compound: COc1ccc(C(=O)c2ccc3c(ccn3C)c2)c2c1C=CC(C)(C)O2 [compound 14b, (5-methoxy-2,2-dimethyl-2H-chromen-8-yl)(1-methyl-1H-indol-5-yl)methanone]
- IC50 [1]: 22 ± 2 nM
- IC50 [2]: 42 ± 11 nM
- IC50 [3]: 51 ± 5 nM
- effect on tubulin polymerization (tubulin; 5 μM, Figure 2A,B): inhibited tubulin polymerization in a colchicine-like manner
- IC50 (tubulin; in vitro, area under the curve): 2070 ± 150 nM
- IC50 [4]: 122 ± 36 nM
- IC50 [5]: 74 ± 13 nM
- IC50 ([6]; Homo sapiens, MCF-10A, 48 h, CCK-8, normal cells, read-out: IC50, Mean ± SE, MCF-10A): 6260 ± 311 nM
- Selectivity Ratio ([6]; IC50 MCF-10A / IC50 MCF-7): 231.7
